Like-named read-outs stand apart in the source and are kept apart here. Marks after values point to notes of the source that are not given here. Peptide text beside a SMILES is read from it.
Assays:
[1] = molecular target: T1, HIV-1 IN-IN subunit exchange (Human immunodeficiency virus type 1 group M subtype B, UniProt P04585); assay: HTRF-based IN subunit exchange assay (IN-IN dimerization); format: binding; conditions: for IC50: concentration required to inhibit the HIV-1 IN-IN subunit exchange by 50%, HTRF, His- and FLAG-tagged IN; for IN-IN subunit exchange, percentage of control: measured in the presence of 100 μM concentration
T1 construct: Full-length IN and LEDGF proteins were expressed in E. coli BL21(DE3); made in house; host or cells: E. coli BL21(DE3)
Method: (§1) Full-length IN and LEDGF proteins were expressed in E. coli BL21(DE3) and were purified as described (Kessl et al., [2012]; Esposito et al., [2015]; Tintori et al., [2015]). His- and FLAG-tagged INs, were mixed in 25 mM Tris (pH 7.4) buffer containing 150 mM NaCl, 2 mM MgCl2, 0.1% Nonidet P-40, 1 mg/ml BSA. Test compounds were then added to the mixture. A mixture of anti-His6-XL665 and anti-FLAG-EuCryptate antibodies were then added to the reaction and, after an incubation, the plate are read and the HTRF signal is calculated from the 665/620 nm ratio.
(§2) In this assay two IN preparation are used: a first His-tagged IN preparation, and a second Flag-tagged IN preparation. In both preparations the purified IN is at equilibrium as a dimer; such dimers go through monomers exchange. […] The formation of this “hybrid” dimer can be monitored in the HTRF-based assay as described (Esposito et al., [2015]; Tintori et al., [2015]). When the assay is performed in the presence of a compound inhibiting dimerization, the HTRF signal decreases as the concentration of compound increases, whereas in the presence of a compound promoting IN multimerization (association of dimers) the HTRF signal increases as the concentration of the compound increases.

HIV-1 IN multimerization = molecular target: T2, HIV-1 IN multimerization (Human immunodeficiency virus type 1 group M subtype B, UniProt P04585); assay: HTRF-based IN multimerization assay; format: binding; conditions: for EC50: concentration stimulating the Multimerization Increase by 50%, HTRF, read-out: IN-multim MI50; for IN multimerization signal, % of control at 100 µM: measured in the presence of 100 μM concentration, read-out: IN-multim, percentage of control
T2 construct: Full-length IN and LEDGF proteins were expressed in E. coli BL21(DE3); made in house; host or cells: E. coli BL21(DE3)
Method: as §1, §2

[2] = molecular target: T3, Full-length recombinant HIV-1 integrase (Human immunodeficiency virus type 1 group M subtype B, UniProt P04585); assay: HIV-1 IN activity inhibition assay (Xpressbio HIV-1 IN Assay kit, 3'-processing/strand transfer); format: biochemical
T3 construct: Full-length recombinant HIV-1 integrase protein was then loaded onto this oligo substrate; purchased Xpressbio Life Science Products (Express Biotech International)
Method: Express Biotech International Company performed this assay using its HIV-1 IN Assay kit (Xpressbio Life Science Products, USA. www.xpressbio.com). Briefly, Streptavidin coated 96-well plates were coated with a double-stranded HIV-1 LTR U5 donor substrate (DS) oligonucleotide containing an end-labeled biotin. Full-length recombinant HIV-1 integrase protein was then loaded onto this oligo substrate. Compounds were added to the reaction and then a different double-stranded target substrate (TS) oligo containing 3′-end modifications was added to the plate. The sequence of DS DNA and TS DNA substrates used in this assay were
respectively (Hazuda et al., [1994] and Engelman et al., [1993]). The HIV-1 IN cleaves the terminal two bases from the exposed 3′-end of the HIV-1 LTR DS and then catalyzes a strand-transfer reaction to integrate the DS into the TS. The products of the reaction were detected colorimetrically using an HRP-labeled antibody directed against the TS 3′-end modification. Percent inhibition in the IN assay was calculated and IC50 values were determined.

[3] = Table 1, colorimetric HRP read-out, ±SD, read-out: IN inhibition IC50(μM) ±SD
[4] = Table 2, colorimetric HRP read-out, read-out: IN inhibition IC50

Row | Compound | IC50 [1] | IN-IN subunit exchange, percentage of control [1] | EC50 (HIV-1 IN multimerization) | IC50 [2, 3] | IC50 [2, 4] | IN multimerization signal, % of control at 100 µM (HIV-1 IN multimerization)
1 | CCCC(C(=O)O)c1c(C)nc2ccc(Cl)cc2c1-c1ccccc1 (stereo not drawn) [LEDGIN-6, reference compound] | > 100 µM | >100 (100%) | 10 ± 1 µM | – | – | –
2 | CC[C@H](C)[C@H](NC(=O)[C@H](CCC(=O)O)NC(=O)[C@H](CCCCN)NC(C)=O)C(=O)N[C@H](C(=O)N[C@@H](C)C(=O)N[C@@H](CO)C(=O)N[C@@H](CS)C(=O)N[C@@H](CC(=O)O)C(=O)N[C@@H](CCCCN)C(=O)N[C@@H](CS)C(N)=O)C(C)C [Peptide 12] (Ac-KEIVASCDKC-NH2) | – | – | – | 477 ± 23 µM | – | –
3 | Ac-DFNLPPVVAK-NH2 [Peptide 9] | – | – | – | 213 ± 12 µM | – | –
4 | Ac-GIDKAQDEHE-NH2 [Peptide 2] | – | – | – | 162 ± 9 µM | – | –
5 | Ac-VFAKEIVAH-NH2 [Peptide 20] | – | – | – | – | 375 ± 19 µM | –
6 | Ac-VVAAEIVAH-NH2 [Peptide 24] | 32 ± 3 µM | – | > 100 µM | – | 20.8 ± 1.3 µM | 100%
7 | Ac-VVAKAIVAH-NH2 [Peptide 25] | > 100 µM | >100 (100%) | 4.8 ± 0.4 µM | – | 13 ± 1 µM | –
8 | Ac-VVAKEIFAH-NH2 [Peptide 21] | – | – | – | – | 504 ± 22 µM | –
9 | Ac-VVAKEIVAH-NH2 [Peptide 18] | > 100 µM | >100 (100%)^b | > 100 µM | 4.5 ± 0.9 µM | – | 100%

From article PMC4901077, “Development and Identification of a Novel Anti-HIV-1 Peptide Derived by Modification of the N-Terminal Domain of HIV-1 Integrase” (Frontiers in Microbiology, 2016)
